Results taken from ChEMBL document CHEMBL5154747, “Discovery of new carbonic anhydrase IX inhibitors as anticancer agents by toning the hydrophobic and hydrophilic rims of the active site to encounter the dual-tail approach” (Eur J Med Chem, 2022).
pKi: −log10 of the molar value.

Tests used:
A549 = experiment: Anticancer activity against human A549 cells assessed as cell growth inhibition at 10 uM incubated for 48 hrs by SRB assay relative to control; assay type: functional; conditions: read-out: GI
T47D = experiment: Anticancer activity against human T47D cells assessed as cell growth inhibition at 10 uM incubated for 48 hrs by SRB assay relative to control; assay type: functional; conditions: read-out: GI
SNB-75 = experiment: Anticancer activity against human SNB-75 cells assessed as cell growth inhibition at 10 uM incubated for 48 hrs by SRB assay relative to control; assay type: functional; conditions: read-out: GI
LOX IMVI = experiment: Anticancer activity against human LOX IMVI cells assessed as cell growth inhibition at 10 uM incubated for 48 hrs by SRB assay relative to control; assay type: functional; conditions: read-out: GI
IGROV-1 = experiment: Anticancer activity against human IGROV-1 cells assessed as cell growth inhibition at 10 uM incubated for 48 hrs by SRB assay relative to control; assay type: functional; conditions: read-out: GI
MDA-MB-231 = experiment: Anticancer activity against human MDA-MB-231 cells assessed as cell growth inhibition at 10 uM incubated for 48 hrs by SRB assay relative to control; assay type: functional; conditions: read-out: GI
HCT-116 = experiment: Anticancer activity against human HCT-116 cells assessed as cell growth inhibition at 10 uM incubated for 48 hrs by SRB assay relative to control; assay type: functional; conditions: read-out: GI
CAKI-1 = experiment: Anticancer activity against human CAKI-1 cells assessed as cell growth inhibition at 10 uM incubated for 48 hrs by SRB assay relative to control; assay type: functional; conditions: read-out: GI
RPMI-8226 = experiment: Anticancer activity against human RPMI-8226 cells assessed as cell growth inhibition at 10 uM incubated for 48 hrs by SRB assay relative to control; assay type: functional; conditions: read-out: GI
HOP-92 = experiment: Anticancer activity against human HOP-92 cells assessed as cell growth inhibition at 10 uM incubated for 48 hrs by SRB assay relative to control; assay type: functional; conditions: read-out: GI
SW-620 = experiment: Anticancer activity against human SW-620 cells assessed as cell growth inhibition at 10 uM incubated for 48 hrs by SRB assay relative to control; assay type: functional; conditions: read-out: GI
NCI-H460 = experiment: Anticancer activity against human NCI-H460 cells assessed as cell growth inhibition at 10 uM incubated for 48 hrs by SRB assay relative to control; assay type: functional; conditions: read-out: GI
SN12C = experiment: Anticancer activity against human SN12C cells assessed as cell growth inhibition at 10 uM incubated for 48 hrs by SRB assay relative to control; assay type: functional; conditions: read-out: GI
MDA-MB-435 = experiment: Anticancer activity against human MDA-MB-435 cells assessed as cell growth inhibition at 10 uM incubated for 48 hrs by SRB assay relative to control; assay type: functional; conditions: read-out: GI
NCI/ADR-RES = experiment: Anticancer activity against human NCI/ADR-RES cells assessed as cell growth inhibition at 10 uM incubated for 48 hrs by SRB assay relative to control; assay type: functional; conditions: read-out: GI
Malme-3M = experiment: Anticancer activity against human Malme-3M cells assessed as cell growth inhibition at 10 uM incubated for 48 hrs by SRB assay relative to control; assay type: functional; conditions: read-out: GI
SF-539 = experiment: Anticancer activity against human SF-539 cells assessed as cell growth inhibition at 10 uM incubated for 48 hrs by SRB assay relative to control; assay type: functional; conditions: read-out: GI
PC-3 = experiment: Anticancer activity against human PC-3 cells assessed as cell growth inhibition at 10 uM incubated for 48 hrs by SRB assay relative to control; assay type: functional; conditions: read-out: GI
NCI-H226 = experiment: Anticancer activity against human NCI-H226 cells assessed as cell growth inhibition at 10 uM incubated for 48 hrs by SRB assay relative to control; assay type: functional; conditions: read-out: GI
OVCAR-3 = experiment: Anticancer activity against human OVCAR-3 cells assessed as cell growth inhibition at 10 uM incubated for 48 hrs by SRB assay relative to control; assay type: functional; conditions: read-out: GI
SK-MEL-5 = experiment: Anticancer activity against human SK-MEL-5 cells assessed as cell growth inhibition at 10 uM incubated for 48 hrs by SRB assay relative to control; assay type: functional; conditions: read-out: GI
NCI-H23 = experiment: Anticancer activity against human NCI-H23 cells assessed as cell growth inhibition at 10 uM incubated for 48 hrs by SRB assay relative to control; assay type: functional; conditions: read-out: GI
MDA-MB-468 = experiment: Anticancer activity against human MDA-MB-468 cells assessed as cell growth inhibition at 10 uM incubated for 48 hrs by SRB assay relative to control; assay type: functional; conditions: read-out: GI
SR = experiment: Anticancer activity against human SR cells assessed as cell growth inhibition at 10 uM incubated for 48 hrs by SRB assay relative to control; assay type: functional; conditions: read-out: GI
HT-29 = experiment: Anticancer activity against human HT-29 cells assessed as cell growth inhibition at 10 uM incubated for 48 hrs by SRB assay relative to control; assay type: functional; conditions: read-out: GI
HCC 2998 = experiment: Anticancer activity against human HCC 2998 cells assessed as cell growth inhibition at 10 uM incubated for 48 hrs by SRB assay relative to control; assay type: functional; conditions: read-out: GI
Hs-578T = experiment: Anticancer activity against human Hs-578T cells assessed as cell growth inhibition at 10 uM incubated for 48 hrs by SRB assay relative to control; assay type: functional; conditions: read-out: GI
HCT-15 = experiment: Anticancer activity against human HCT-15 cells assessed as cell growth inhibition at 10 uM incubated for 48 hrs by SRB assay relative to control; assay type: functional; conditions: read-out: GI
UO-31 = experiment: Anticancer activity against human UO-31 cells assessed as cell growth inhibition at 10 uM incubated for 48 hrs by SRB assay relative to control; assay type: functional; conditions: read-out: GI
SK-OV-3 = experiment: Anticancer activity against human SK-OV-3 cells assessed as cell growth inhibition at 10 uM incubated for 48 hrs by SRB assay relative to control; assay type: functional; conditions: read-out: GI
A498 = experiment: Anticancer activity against human A498 cells assessed as cell growth inhibition at 10 uM incubated for 48 hrs by SRB assay relative to control; assay type: functional; conditions: read-out: GI
SK-MEL-2 = experiment: Anticancer activity against human SK-MEL-2 cells assessed as cell growth inhibition at 10 uM incubated for 48 hrs by SRB assay relative to control; assay type: functional; conditions: read-out: GI
UACC-257 = experiment: Anticancer activity against human UACC-257 cells assessed as cell growth inhibition at 10 uM incubated for 48 hrs by SRB assay relative to control; assay type: functional; conditions: read-out: GI
NCI-H522 = experiment: Anticancer activity against human NCI-H522 cells assessed as cell growth inhibition at 10 uM incubated for 48 hrs by SRB assay relative to control; assay type: functional; conditions: read-out: GI
ACHN = experiment: Anticancer activity against human ACHN cells assessed as cell growth inhibition at 10 uM incubated for 48 hrs by SRB assay relative to control; assay type: functional; conditions: read-out: GI
SF-268 = experiment: Anticancer activity against human SF-268 cells assessed as cell growth inhibition at 10 uM incubated for 48 hrs by SRB assay relative to control; assay type: functional; conditions: read-out: GI
KM12 = experiment: Anticancer activity against human KM12 cells assessed as cell growth inhibition at 10 uM incubated for 48 hrs by SRB assay relative to control; assay type: functional; conditions: read-out: GI
MCF7 = experiment: Anticancer activity against human MCF7 cells assessed as cell growth inhibition at 10 uM incubated for 48 hrs by SRB assay relative to control; assay type: functional; conditions: read-out: GI
Carbonic anhydrase 9 = Carbonic anhydrase 9 (Homo sapiens, UniProt Q16790); experiment: Inhibition of recombinant human CA 9 preincubated for 15 mins by phenol red dye based stopped flow CO2 hydration assay
CCRF-CEM = experiment: Anticancer activity against human CCRF-CEM cells assessed as cell growth inhibition at 10 uM incubated for 48 hrs by SRB assay relative to control; assay type: functional; conditions: read-out: GI

| Compound | inhibition of growth at 10 µM (A549) [%] | inhibition of growth at 10 µM (T47D) [%] | inhibition of growth at 10 µM (SNB-75) [%] | inhibition of growth at 10 µM (LOX IMVI) [%] | inhibition of growth at 10 µM (IGROV-1) [%] | inhibition of growth at 10 µM (MDA-MB-231) [%] | inhibition of growth at 10 µM (HCT-116) [%] | inhibition of growth at 10 µM (CAKI-1) [%] | inhibition of growth at 10 µM (RPMI-8226) [%] | inhibition of growth at 10 µM (HOP-92) [%] | inhibition of growth at 10 µM (SW-620) [%] | inhibition of growth at 10 µM (NCI-H460) [%] | inhibition of growth at 10 µM (SN12C) [%] | inhibition of growth at 10 µM (MDA-MB-435) [%] | inhibition of growth at 10 µM (NCI/ADR-RES) [%] | inhibition of growth at 10 µM (Malme-3M) [%] | inhibition of growth at 10 µM (SF-539) [%] | inhibition of growth at 10 µM (PC-3) [%] | inhibition of growth at 10 µM (NCI-H226) [%] | inhibition of growth at 10 µM (OVCAR-3) [%] | also measured |
| --- | --- | --- | --- | --- | --- | --- | --- | --- | --- | --- | --- | --- | --- | --- | --- | --- | --- | --- | --- | --- | --- |
| NS(=O)(=O)c1ccc(Nc2nc(N/N=C/CCc3ccccc3)nc(Nc3ccccc3)n2)cc1 | < 10 | < 10 | < 10 | < 10 | < 10 | < 10 | < 10 | < 10 | < 10 | < 10 | < 10 | < 10 | < 10 | < 10 | < 10 | < 10 | < 10 | < 10 | < 10 | < 10 | inhibition of growth at 10 µM (SK-MEL-5): < 10%; inhibition of growth at 10 µM (NCI-H23): < 10%; inhibition of growth at 10 µM (MDA-MB-468): 11%; inhibition of growth at 10 µM (SR): < 10%; inhibition of growth at 10 µM (HT-29): < 10%; inhibition of growth at 10 µM (HCC 2998): < 10%; inhibition of growth at 10 µM (Hs-578T): < 10%; inhibition of growth at 10 µM (HCT-15): < 10%; inhibition of growth at 10 µM (UO-31): < 10%; inhibition of growth at 10 µM (SK-OV-3): < 10%; inhibition of growth at 10 µM (A498): < 10%; inhibition of growth at 10 µM (SK-MEL-2): < 10%; inhibition of growth at 10 µM (UACC-257): < 10%; inhibition of growth at 10 µM (NCI-H522): 12%; inhibition of growth at 10 µM (ACHN): < 10%; inhibition of growth at 10 µM (SF-268): < 10%; inhibition of growth at 10 µM (KM12): < 10%; inhibition of growth at 10 µM (MCF7): < 10%; pKi (Carbonic anhydrase 9): 7.54; inhibition of growth at 10 µM (CCRF-CEM): < 10% |
| NS(=O)(=O)c1ccc(Nc2nc(N/N=C/c3ccccn3)nc(Nc3ccccc3)n2)cc1 | 64 | 118 | 125 | 143 | 130 | 129 | 129 | 125 | 63 | 146 | 117 | 96 | 97 | 184 | 51 | 168 | 142 | 107 | 149 | 115 | inhibition of growth at 10 µM (SK-MEL-5): 184%; inhibition of growth at 10 µM (NCI-H23): 107%; inhibition of growth at 10 µM (MDA-MB-468): 129%; inhibition of growth at 10 µM (SR): 87%; inhibition of growth at 10 µM (HT-29): 93%; inhibition of growth at 10 µM (HCC 2998): 174%; inhibition of growth at 10 µM (Hs-578T): 118%; inhibition of growth at 10 µM (HCT-15): 82%; inhibition of growth at 10 µM (UO-31): 82%; inhibition of growth at 10 µM (SK-OV-3): 131%; inhibition of growth at 10 µM (A498): 167%; inhibition of growth at 10 µM (SK-MEL-2): 182%; inhibition of growth at 10 µM (UACC-257): 118%; inhibition of growth at 10 µM (NCI-H522): 132%; inhibition of growth at 10 µM (ACHN): 82%; inhibition of growth at 10 µM (SF-268): 122%; inhibition of growth at 10 µM (KM12): 95%; inhibition of growth at 10 µM (MCF7): 98%; pKi (Carbonic anhydrase 9): 7.57; inhibition of growth at 10 µM (CCRF-CEM): 94% |
